Measured values as given in PubChem BioAssay AID1963963 (Molecular Pharmacology Branch, DTP, NCI, 2024).

Tested on: 958667-338-R-J2-PDC tumor spheroids viability
Test: Anticancer human tumor 958667-338-R-J2-PDC patient-derived colon adenocarcinoma cell line growth inhibition [PI3K]
Conditions: spheroids with HUVEC and MSC; for IC50: curve of first compound; for viability, T/C: stronger effect = lower value; active = viability on the fitted dose curve at most 10% of control; inactive = the rest
Text: Combinatorial screen of targeted agents with the PI3K inhibitors inavolisib, alpelisib, duvelisib, and copanlisib in multi-cell type tumor spheroids
A high-throughput screen of multi-cell type tumor spheroids was designed to identify active combinations of targeted small molecules and PI3K pathway inhibitors. Complex spheroids include a stromal component modeled by human endothelial cells (HUVEC) and fibroblasts modeled by human mesenchymal stem cells (MSCs). The concentration ranges selected for each drug and investigational agent were based upon clinically achievable concentrations if the clinical Cmax of the agent was known.
Compounds. The drugs and investigational agents: inavolisib (NSC800729), alpelisib (NSC765974), duvelisib (NSC772469), copanlisib (NSC816437), ipatasertib (NSC767898), afuresertib (NSC778305), talazoparib (NSC767125), sapanisertib (NSC764658), selumetinib (NSC741078), tovorafenib (DAY101, NSC766906), vemurafenib (NSC761431), ravoxertinib (NSC781343), sotorasib (NSC818433), MRTX1133 (NSC 836407), abemaciclib (NSC 768073), palbociclib (NSC758247), venetoclax (NSC 766270), SY5609 (NSC837396), enzalutamide (NSC755605), and darolutamide (NSC825331), were obtained from the National Cancer Institute (NCI) Developmental Therapeutics Program Chemical Repository. The FDA-approved anticancer drug set is available from the NCI Developmental Therapeutics Program. […] The stock solutions were prepared in dimethyl sulfoxide (DMSO, Sigma-Aldrich, St. Louis, MO, cat. D2650) at 800-fold the tested concentration and stored at -70 degrees C prior to their use. All drugs and investigational agents were tested over a range starting from a high concentration at or near the clinical Cmax and decreasing in half-log increments. If the clinical Cmax for an agent had not been determined, the highest concentration tested was 10 microM.
Cell Culture. All cells were maintained in an incubator at 37 degrees C and 5% CO2 with 95% humidity. The PDC lines were cultured according to standard operating procedures established by the NCI PDMR (https://pdmr.cancer.gov/sops/default.htm). All PDCs were thawed and cultured in Matrigel-coated flasks prepared with a working solution of 1X Ham's F-12 nutrient mix, without supplementation (Invitrogen, Waltham, MA, cat. 11765054), 100 U/mL penicillin-streptomycin (Invitrogen, cat. 15140122), and 2.5% Matrigel (Corning Inc., Corning, NY, cat. 354248) for the first three passages. The 354836-022-R-J1-PDC, 475296-252-R-J1-PDC, and 997726-040-R-J2-PDC lines were cultured in 6A media, which includes advanced DMEM/F-12 (Thermo Fisher Scientific, cat. 12634028), 10 mM HEPES (Thermo Fisher Scientific, cat. 15630080), 1X GlutaMAX supplement (Thermo Fisher Scientific, cat. 35050061), 0.1 mg/mL primocin (InvivoGen, San Diego, CA, cat. ant-pm-2), 10% defined fetal bovine serum, heat inactivated (HyClone Laboratories Inc., Logan, UT, cat. SH30070.03HI), 50% L-WRN conditioned media (ATCC, cat. CRL-3276), 1.25 mM N-Acetyl-L-cysteine (Sigma-Aldrich, cat. A9165), 10 mM nicotinamide (Sigma-Aldrich, cat. N0636), 1X B-27 supplement (Thermo Fisher Scientific, cat. 17504044), 1X N-2 supplement (Thermo Fisher Scientific, cat. 17502048), and 10 microM Y-27632 dihydrochloride (Tocris Bioscience, Bristol, United Kingdom, cat. 1254). The 624824-186-R-J2-PDC line was cultured in 6C/Colon 1B media, which includes all 6A media components plus 50 ng/mL human EGF recombinant protein (Thermo Fisher Scientific, cat. PHG0311). […]
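Also: spheroids exposed to compounds for seven days before readout.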

CCCS(=O)(=O)Nc1ccc(F)c(C(=O)c2c[nH]c3ncc(-c4ccc(Cl)cc4)cc23)c1F + CC(Nc1ccc2c(c1)OCCn1cc(N3C(=O)OCC3C(F)F)nc1-2)C(N)=O
active: viability, T/C (second compound 0.00316 µM, first compound 10 µM) 8.08% | viability, T/C (second compound 0.01 µM, first compound 10 µM) 5.91% | viability, T/C (second compound 0.0316 µM, first compound 10 µM) 9.56% | viability, T/C (second compound 0.1 µM, first compound 10 µM) 5.14%
6.1 µM: IC50 (second compound 0.00316 µM)
4.81 µM: IC50 (second compound 0.316 µM)
inactive: viability, T/C (second compound 0.00316 µM, first compound 0.0316 µM) 99% | viability, T/C (second compound 0.00316 µM, first compound 0.1 µM) 105% | viability, T/C (second compound 0.00316 µM, first compound 0.316 µM) 106% | viability, T/C (second compound 0.00316 µM, first compound 1 µM) 106% | viability, T/C (second compound 0.00316 µM, first compound 3.16 µM) 112% | viability, T/C (second compound 0.01 µM, first compound 0.0316 µM) 105% | viability, T/C (second compound 0.01 µM, first compound 0.1 µM) 111% | viability, T/C (second compound 0.01 µM, first compound 0.316 µM) 83.7% | viability, T/C (second compound 0.01 µM, first compound 1 µM) 99.9% | viability, T/C (second compound 0.01 µM, first compound 3.16 µM) 130% | viability, T/C (second compound 0.0316 µM, first compound 0.0316 µM) 104% | viability, T/C (second compound 0.0316 µM, first compound 0.1 µM) 109% | viability, T/C (second compound 0.0316 µM, first compound 0.316 µM) 104% | viability, T/C (second compound 0.0316 µM, first compound 1 µM) 106% | viability, T/C (second compound 0.0316 µM, first compound 3.16 µM) 76.7% | viability, T/C (second compound 0.1 µM, first compound 0.0316 µM) 78.3% | viability, T/C (second compound 0.1 µM, first compound 0.1 µM) 74.9% | viability, T/C (second compound 0.1 µM, first compound 0.316 µM) 72.3% | viability, T/C (second compound 0.1 µM, first compound 1 µM) 67.5% | viability, T/C (second compound 0.1 µM, first compound 3.16 µM) 81.1% | viability, T/C (second compound 0.316 µM, first compound 0.0316 µM) 72.5% | viability, T/C (second compound 0.316 µM, first compound 0.1 µM) 65.5% | viability, T/C (second compound 0.316 µM, first compound 0.316 µM) 61.5% | viability, T/C (second compound 0.316 µM, first compound 1 µM) 79.1% | viability, T/C (second compound 0.316 µM, first compound 3.16 µM) 79.7% | viability, T/C (second compound 0.316 µM, first compound 10 µM) 12.3% | viability, T/C (second compound 1 µM, first compound 0.0316 µM) 57.8% | viability, T/C (second compound 1 µM, first compound 0.1 µM) 61% | viability, T/C (second compound 1 µM, first compound 0.316 µM) 58% | viability, T/C (second compound 1 µM, first compound 1 µM) 68.9% | viability, T/C (second compound 1 µM, first compound 3.16 µM) 60.5% | viability, T/C (second compound 1 µM, first compound 10 µM) 10.8%
6.01 µM: IC50 (second compound 0.01 µM)
5 µM: IC50 (second compound 0.0316 µM)
4.77 µM: IC50 (second compound 0.1 µM)
4.04 µM: IC50 (second compound 1 µM)
